Test results taken from PMC5147005 (The Journal of Cell Biology, 2016).

T1: MFN1-MGD (minimal GTPase domain of human MFN1) (Homo sapiens, UniProt Q8IWA4, DEL365-693)
T1 sequence (Q8IWA4 1-364): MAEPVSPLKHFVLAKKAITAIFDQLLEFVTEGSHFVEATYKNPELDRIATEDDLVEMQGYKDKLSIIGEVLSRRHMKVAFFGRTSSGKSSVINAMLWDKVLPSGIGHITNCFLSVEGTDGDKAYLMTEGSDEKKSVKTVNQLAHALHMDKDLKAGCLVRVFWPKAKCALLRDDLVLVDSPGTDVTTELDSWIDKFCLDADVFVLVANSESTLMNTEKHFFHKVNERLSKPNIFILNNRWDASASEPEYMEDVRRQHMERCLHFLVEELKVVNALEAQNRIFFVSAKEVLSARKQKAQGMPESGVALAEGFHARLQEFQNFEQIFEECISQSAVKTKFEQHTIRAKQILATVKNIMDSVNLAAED
T1 sequence (Q8IWA4 694-741): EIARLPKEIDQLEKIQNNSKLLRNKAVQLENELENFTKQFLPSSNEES


Assays:
[1] = target: T1, MFN1-MGD (minimal GTPase domain of human MFN1); assay: isothermal titration calorimetry; assay type: binding
AUC = target: the molecule itself; assay: AUC

Kd [1] | Molecule | stoichiometry N (AUC)
91.7 µM | Nc1nc2c(ncn2[C@@H]2O[C@H](COP(=O)(O)OP(=O)(O)O)[C@@H](O)[C@H]2O)c(=O)[nH]1 [GDP] | 
 | human MFN1 minimal GTPase domain (MGD), wild type (domain or fragment) MAEPVSPLKHFVLAKKAITAIFDQLLEFVTEGSHFVEATYKNPELDRIATEDDLVEMQGYKDKLSIIGEVLSRRHMKVAFFGRTSSGKSSVINAMLWDKVLPSGIGHITNCFLSVEGTDGDKAYLMTEGSDEKKSVKTVNQLAHALHMDKDLKAGCLVRVFWPKAKCALLRDDLVLVDSPGTDVTTELDSWIDKFCLDADVFVLVANSESTLMNTEKHFFHKVNERLSKPNIFILNNRWDASASEPEYMEDVRRQHMERCLHFLVEELKVVNALEAQNRIFFVSAKEVLSARKQKAQGMPESGVALAEGFHARLQEFQNFEQIFEECISQSAVKTKFEQHTIRAKQILATVKNIMDSVNLAAEDGSGSGSGGSEIARLPKEIDQLEKIQNNSKLLRNKAVQLENELENFTKQFLPSSNEES | 2
